Measured values: ChEMBL document CHEMBL1155218, “Carbonic anhydrase inhibitors. Comparison of aliphatic sulfamate/bis-sulfamate adducts with isozymes II and IX as a platform for designing tight-binding, more isoform-selective inhibitors” (J Med Chem, 2009)
pKi: −log10 of the molar value.

How the values were obtained:
Carbonic anhydrase 13 = Carbonic anhydrase 13 (Mus musculus, UniProt Q9D6N1)
[1] = molecular target: Carbonic anhydrase 5B, mitochondrial (Homo sapiens, UniProt Q9Y2D0)
Carbonic anhydrase 6 = Carbonic anhydrase 6 (Homo sapiens, UniProt P23280)
Carbonic anhydrase 14 = Carbonic anhydrase 14 (Homo sapiens, UniProt Q9ULX7)
Carbonic anhydrase 3 = Carbonic anhydrase 3 (Homo sapiens, UniProt P07451)
Carbonic anhydrase 12 = Carbonic anhydrase 12 (Homo sapiens, UniProt O43570)
[2] = molecular target: Carbonic anhydrase 5A, mitochondrial (Homo sapiens, UniProt P35218)
Carbonic anhydrase 7 = Carbonic anhydrase 7 (Homo sapiens, UniProt P43166)
Sequence of Carbonic anhydrase 7 (P43166 whole entry): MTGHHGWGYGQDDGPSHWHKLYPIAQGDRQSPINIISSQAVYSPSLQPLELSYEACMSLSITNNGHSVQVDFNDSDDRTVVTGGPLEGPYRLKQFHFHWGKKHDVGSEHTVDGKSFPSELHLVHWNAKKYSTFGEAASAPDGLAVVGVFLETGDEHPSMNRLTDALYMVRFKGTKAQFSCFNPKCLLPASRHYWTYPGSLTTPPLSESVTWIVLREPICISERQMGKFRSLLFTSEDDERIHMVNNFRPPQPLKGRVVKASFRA

Sequence of Carbonic anhydrase 13 (Q9D6N1 whole entry): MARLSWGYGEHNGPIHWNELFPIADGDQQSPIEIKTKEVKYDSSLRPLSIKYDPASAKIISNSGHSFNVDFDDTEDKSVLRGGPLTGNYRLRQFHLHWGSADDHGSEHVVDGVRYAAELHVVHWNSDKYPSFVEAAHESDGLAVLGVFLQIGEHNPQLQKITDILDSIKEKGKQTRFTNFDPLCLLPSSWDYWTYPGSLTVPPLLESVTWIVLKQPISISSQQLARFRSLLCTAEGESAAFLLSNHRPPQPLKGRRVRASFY
Sequence of Carbonic anhydrase 6 (P23280 whole entry): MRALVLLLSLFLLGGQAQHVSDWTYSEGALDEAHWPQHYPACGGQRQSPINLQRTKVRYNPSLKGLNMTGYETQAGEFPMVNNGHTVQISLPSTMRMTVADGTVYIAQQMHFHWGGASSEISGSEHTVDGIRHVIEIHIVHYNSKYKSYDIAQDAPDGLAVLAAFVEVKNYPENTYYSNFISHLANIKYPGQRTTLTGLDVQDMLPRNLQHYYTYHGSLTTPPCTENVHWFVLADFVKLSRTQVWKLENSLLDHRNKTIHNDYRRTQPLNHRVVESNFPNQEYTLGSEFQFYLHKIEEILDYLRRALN
Sequence of Carbonic anhydrase 5A, mitochondrial (P35218 whole entry): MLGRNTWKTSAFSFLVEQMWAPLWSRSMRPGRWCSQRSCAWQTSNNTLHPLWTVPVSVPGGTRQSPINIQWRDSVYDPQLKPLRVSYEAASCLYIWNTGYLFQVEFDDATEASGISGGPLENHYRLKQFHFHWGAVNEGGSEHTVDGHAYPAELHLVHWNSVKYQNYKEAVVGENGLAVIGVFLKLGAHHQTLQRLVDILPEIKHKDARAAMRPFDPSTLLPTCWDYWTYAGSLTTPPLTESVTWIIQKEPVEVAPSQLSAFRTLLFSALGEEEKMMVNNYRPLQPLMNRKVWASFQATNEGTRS
Sequence of Carbonic anhydrase 12 (O43570 whole entry): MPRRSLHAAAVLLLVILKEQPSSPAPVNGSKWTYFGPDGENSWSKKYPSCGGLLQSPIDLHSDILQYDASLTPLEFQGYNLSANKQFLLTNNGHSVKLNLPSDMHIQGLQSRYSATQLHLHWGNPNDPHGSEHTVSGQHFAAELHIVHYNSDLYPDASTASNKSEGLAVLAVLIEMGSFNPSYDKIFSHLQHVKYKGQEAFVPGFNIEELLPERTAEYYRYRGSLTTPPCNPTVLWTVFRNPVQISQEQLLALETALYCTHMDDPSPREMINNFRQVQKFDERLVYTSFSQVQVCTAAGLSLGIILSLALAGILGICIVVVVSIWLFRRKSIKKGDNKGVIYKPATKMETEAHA
Sequence of Carbonic anhydrase 3 (P07451 whole entry): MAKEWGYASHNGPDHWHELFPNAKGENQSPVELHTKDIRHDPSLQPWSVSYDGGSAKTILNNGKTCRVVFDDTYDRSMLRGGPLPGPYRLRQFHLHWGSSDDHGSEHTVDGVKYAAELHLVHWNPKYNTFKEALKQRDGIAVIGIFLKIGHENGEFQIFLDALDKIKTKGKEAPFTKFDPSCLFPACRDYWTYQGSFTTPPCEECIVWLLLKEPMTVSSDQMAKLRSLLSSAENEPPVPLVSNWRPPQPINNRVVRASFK
Sequence of Carbonic anhydrase 14 (Q9ULX7 whole entry): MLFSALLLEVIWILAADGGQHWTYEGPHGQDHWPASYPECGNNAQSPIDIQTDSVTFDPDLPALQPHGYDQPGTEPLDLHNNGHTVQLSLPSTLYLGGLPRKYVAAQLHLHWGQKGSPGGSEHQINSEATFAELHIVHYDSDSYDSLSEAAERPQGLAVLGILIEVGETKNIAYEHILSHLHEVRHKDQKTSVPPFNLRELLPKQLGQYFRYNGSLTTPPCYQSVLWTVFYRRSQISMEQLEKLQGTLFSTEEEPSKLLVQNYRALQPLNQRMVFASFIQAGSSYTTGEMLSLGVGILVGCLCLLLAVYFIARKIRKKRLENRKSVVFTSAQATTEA
Sequence of Carbonic anhydrase 5B, mitochondrial (Q9Y2D0 whole entry): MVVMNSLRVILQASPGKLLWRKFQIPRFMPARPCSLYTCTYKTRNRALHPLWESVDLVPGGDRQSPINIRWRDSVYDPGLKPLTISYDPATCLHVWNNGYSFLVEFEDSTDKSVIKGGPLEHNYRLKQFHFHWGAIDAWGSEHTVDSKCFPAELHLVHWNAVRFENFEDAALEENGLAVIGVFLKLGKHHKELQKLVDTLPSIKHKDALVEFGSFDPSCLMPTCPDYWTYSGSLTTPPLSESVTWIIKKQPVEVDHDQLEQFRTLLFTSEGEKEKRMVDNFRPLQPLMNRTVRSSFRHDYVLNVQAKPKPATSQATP

| pKi (Carbonic anhydrase 13) | pKi [1] | pKi (Carbonic anhydrase 6) | pKi (Carbonic anhydrase 14) | pKi (Carbonic anhydrase 3) | pKi (Carbonic anhydrase 12) | pKi [2] | pKi (Carbonic anhydrase 7) | SMILES |
| --- | --- | --- | --- | --- | --- | --- | --- | --- |
| 6.02 |  |  |  |  |  |  |  | NS(=O)(=O)OCCCCCCCCCCOS(N)(=O)=O |
| 6.24 | 5.84 | 5.99 | 6.22 | 5.95 | 8.10 | 5.92 |  | NS(=O)(=O)OCCCCCCCCOS(N)(=O)=O |
| 6.02 |  |  |  |  |  |  |  | CCCCCCCCCCOS(N)(=O)=O [DECYL SULFAMATE] |
| 5.95 | 6.20 | 6.10 | 6.41 | 5.04 | 8.15 | 5.90 | 7.12 | CCCCCCCCOS(N)(=O)=O [OCTYL SULFAMATE] |
